Test results from patent publication US4895856A, “Derivatives of 5-pentylamino-5-oxopentanoic and 4-pentylamino-4-oxobutanoic acids with antagonistic activity towards cholecystokinin” (Rotta Research Laboratorium S.p.A., priority 1986, dated 1990).
Like-named read-outs stand apart in the source and are kept apart here.

Experiments:
pyloric sphincter = assay: Antispastic activity on pyloric contraction induced by CCK in rats; assay type: in vivo; details: for % inhibition of the pyloric contraction: CCK 8 mcg/kg i.p.; for ED50: Rattus norvegicus, ip, i.p. 15 minutes before CCK 8 mcg/kg i.p., read-out: ID50 (antispastic activity on the pyloric contraction induced by CCK)
Method: A dose of 8 mcg/kg i.p. of CCK was used, which induced a sub-maximal contraction of the pylorus. The antagonistic compounds were administered (i.p.) 15 minutes before the contractant. 10 minutes after administration of the contractant, the animals were treated per os with 25 ml/kg of H2 O. 5 minutes after the administration the animals were killed, their stomachs removed and the gastric content measured by removal with a syringe.
The % antispastic activity for each dose administered was calculated from the following formula: [formula] where V1 =the volume of gastric content of the group of animals treated with the drug plus the contractant.
V2 =the volume of gastric content of the group of animals treated with the contractant only.
V3 =the volume of gastric content of the control group of animals.
Various doses of the compounds were tested so as to enable the calculation of an ID50 value, that is the dose (in mg/kg i.p.) which is able to inhibit the contractant effect of CCK by 50%.
The results obtained are given in Table 6 where the effects obtained are expressed as the ID50.

gallbladder = assay: Antispastic activity on the gallbladder in mice (egg yolk-induced emptying); assay type: in vivo; details: for % inhibition of the emptying of the gallbladder: egg yolk; for ED50: Mus musculus, ip, read-out: ID50 (antispastic activity on contraction of the gallbladder induced by egg yolk)
Method: (§1) Emptying of the gall bladder was induced by a single oral administration of 1 ml of a 30% suspension (weight/volume) of lyophylised egg yolk in a physiological solution.
(§2) As stated above once it has been absorbed egg yoke induces a release of endogenous CCK.
(§3) The antagonistic compounds were administered intraperitoneally (i.p.) 15 minutes before the contractant.
(§4) The % antispastic activity for each dose was calculated from the following formula: [formula] where P1 =the average weight of the gallbladders of the group of animals treated with the drug plus the contractant.
(§5) P2 =the average weight of the gallbladders of the group of animals treated with the contractant only.
(§6) P3 --the average weight of the gallbladders of the control group of animals.
(§7) The results obtained are given in Table 5 where the effects obtained are expressed as the ID50.

pancreas = assay: Protective activity in experimental pancreatitis induced by sodium taurocholate in rats; assay type: in vivo; details: for ED50: Rattus norvegicus, ip, taurocholate pancreatitis
Method: The method described by Aho et al. (Scandinavian J. Gastroenterology 15 (1980), 411-16) was followed.
Male rats weighing approximately 250 g were subjected to laparotomy and the pancreas exposed. 0.3 ml of a 6% solution of sodium taurocholate were injected directly into the pancreatic tissue.
The products under examination were administered intraperitoneally (i.p.) 30 minutes before the operation and 3 hours after the operation.
6 hours after the laparotomy, blood was taken from the retro-orbital plexus after anaesthesia with ether, the animals were killed and the pancreas was removed and weighed. The activity of the serum amylase was determined by the Ceska method (Clin. Chim. Acta 26 (1969), 437-444).
The compounds were tested at various doses so as to enable the calculation of an ID50 value, that is the dose (in mg/kg i.p.) which is able to inhibit the toxic effect of the sodium taurocholate by 50%, expressed both as a % inhibition of the increase in weight of the pancreas and as a % inhibition of the increase in serum amylase.

[1] = Antispastic activity on the gallbladder in mice (egg yolk-induced emptying); assay type: in vivo; details: mouse, in vivo, ip, 75 mg/kg, read-out: death of the animals treated
Method: as §1, §2, §3, §4, §5, §6, §7

[2] = target: T1, cholecystokinin receptors of ox gallbladder membranes (Bos taurus, UniProt A6QLH2); assay: Inhibition of binding of (125-I)-Bolton Hunter-CCK-8 to ox gallbladder membranes; details: 2 h at 25° C., pH 7.4, read-out: IC50 (displacement of 50% of the (125-I)-CCK-8 from the receptors)
T1 sequence (A6QLH2 1-427): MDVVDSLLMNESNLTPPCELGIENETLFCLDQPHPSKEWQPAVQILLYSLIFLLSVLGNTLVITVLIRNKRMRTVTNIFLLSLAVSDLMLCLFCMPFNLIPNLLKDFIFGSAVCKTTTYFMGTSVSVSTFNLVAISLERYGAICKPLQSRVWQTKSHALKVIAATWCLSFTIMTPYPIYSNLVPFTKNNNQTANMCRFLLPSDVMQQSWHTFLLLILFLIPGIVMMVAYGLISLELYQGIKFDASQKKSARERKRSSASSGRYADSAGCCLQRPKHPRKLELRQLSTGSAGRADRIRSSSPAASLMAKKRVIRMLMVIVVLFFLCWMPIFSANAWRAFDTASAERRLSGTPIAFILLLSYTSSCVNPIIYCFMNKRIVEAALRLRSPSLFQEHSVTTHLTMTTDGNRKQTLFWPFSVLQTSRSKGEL
Method: The capacity of some compounds of the invention to inhibit the binding of (125-I)-Bolton Hunter-CCK-8 to the cholecystokinin receptors of ox gallbladder membranes was evaluated by comparison with the displacement induced by cold (unmarked) CCK.
The ox gallbladder cell membranes were prepared by homogenisation with Tris buffer (pH 7.4) and centrifuging of the homogenate at 50,000 gravity for 10 minutes. The membranes were then incubated together with the radioactive tracer and the compounds under study for 2 h at 25° C.
After the supernatant liquid had been discarded, the radioactivity associated with the pellet was determined with a liquid scintillator. The specific binding was determined as the difference between the binding in the absence and in the presence of 10^-6 M CCK-8.

[3] = i.p. 15 minutes before the contractant
[4] = read-out: ID50, inhibition of pancreas weight increase
[5] = read-out: ID50, inhibition of serum amylase increase

## CCCCCN(CCCCC)C(=O)C(CCC(=O)O)NC(=O)c1ccc2ccccc2c1 (racemic) [Compound 19, D,L-4-(2-naphthoylamino)-5-(di-n-pentylamino)-5-oxopentanoicacid]
Pyloric sphincter; 0.01 mg/kg i.p.
  % inhibition of the pyloric contraction: 17.3%
Pyloric sphincter; 0.03 mg/kg i.p.
  % inhibition of the pyloric contraction: 28.7%
Pyloric sphincter; 0.1 mg/kg i.p.
  % inhibition of the pyloric contraction: 70.7%
Pyloric sphincter; 0.3 mg/kg i.p.
  % inhibition of the pyloric contraction: 95.5%
Pyloric sphincter
  ED50: 0.05 mg/kg
gallbladder; 0.03 mg/kg i.p.
  % inhibition of the emptying of the gallbladder: 12.1%
gallbladder; 0.1 mg/kg i.p.
  % inhibition of the emptying of the gallbladder: 41.2%
gallbladder; 0.3 mg/kg
  contraction of the gallbladder induced by the egg yolk (in words): almost completely blocks the contraction
gallbladder; 0.3 mg/kg i.p.
  % inhibition of the emptying of the gallbladder: 83.7%
gallbladder; [3]
  ED50: 0.11 mg/kg
pancreas; 1 mg/kg i.p. + taurocholate
  % inhibition amylase increase: 45.3%
  % inhibition weight increase (pancreas): 33.3%
  % ratio pancreas weight / animal weight: 0.49%
  amylase in the serum: 12.7 U/ml
pancreas; 3 mg/kg i.p. + taurocholate
  % inhibition amylase increase: 76.7%
  % inhibition weight increase (pancreas): 73.3%
  % ratio pancreas weight / animal weight: 0.43%
  amylase in the serum: 10.0 U/ml
pancreas; 10 mg/kg i.p. + taurocholate
  % inhibition amylase increase: 90.7%
  % inhibition weight increase (pancreas): 93.3%
  % ratio pancreas weight / animal weight: 0.40%
  amylase in the serum: 8.8 U/ml
pancreas; [4]
  ED50: 1.7 mg/kg
pancreas; [5]
  ED50: 1.1 mg/kg
pancreas; read-out: dose inhibiting the weight increase of the pancreas and the serum amylase increase by 50%
  ED50: ~1.5 mg/kg

## CCCCCN(CCCCC)C(=O)C(CC(=O)O)NC(=O)c1ccc2ccccc2c1 (stereo not shown) [Compound 26]
Pyloric sphincter; 0.03 mg/kg i.p.
  % inhibition of the pyloric contraction: 24.8%
Pyloric sphincter; 0.1 mg/kg i.p.
  % inhibition of the pyloric contraction: 50.0%
Pyloric sphincter; 0.3 mg/kg i.p.
  % inhibition of the pyloric contraction: 57.7%
Pyloric sphincter; 1.0 mg/kg i.p.
  % inhibition of the pyloric contraction: 78.9%
Pyloric sphincter
  ED50: 0.14 mg/kg
gallbladder; 0.1 mg/kg i.p.
  % inhibition of the emptying of the gallbladder: 17.0%
gallbladder; 0.3 mg/kg i.p.
  % inhibition of the emptying of the gallbladder: 30.8%
gallbladder; 1.0 mg/kg i.p.
  % inhibition of the emptying of the gallbladder: 66.7%
gallbladder; [3]
  ED50: 0.53 mg/kg

## CCCCCN(CCCOC)C(=O)C(CCC(=O)O)NC(=O)c1ccc2ccccc2c1 (stereo not shown) [Compound 28]
Pyloric sphincter; 0.03 mg/kg i.p.
  % inhibition of the pyloric contraction: 12.5%
Pyloric sphincter; 0.1 mg/kg i.p.
  % inhibition of the pyloric contraction: 29.2%
Pyloric sphincter; 0.3 mg/kg i.p.
  % inhibition of the pyloric contraction: 46.7%
Pyloric sphincter; 1.0 mg/kg i.p.
  % inhibition of the pyloric contraction: 73.0%
Pyloric sphincter
  ED50: 0.3 mg/kg
gallbladder; 0.1 mg/kg i.p.
  % inhibition of the emptying of the gallbladder: 16.5%
gallbladder; 0.3 mg/kg i.p.
  % inhibition of the emptying of the gallbladder: 36.2%
gallbladder; 1.0 mg/kg i.p.
  % inhibition of the emptying of the gallbladder: 58.8%
gallbladder; [3]
  ED50: 0.62 mg/kg
pancreas; 3 mg/kg i.p. + taurocholate
  % inhibition amylase increase: 45.0%
  % inhibition weight increase (pancreas): 29.2%
  % ratio pancreas weight / animal weight: 0.52%
  amylase in the serum: 11.0 U/ml
pancreas; 10 mg/kg i.p. + taurocholate
  % inhibition amylase increase: 68.3%
  % inhibition weight increase (pancreas): 50.0%
  % ratio pancreas weight / animal weight: 0.47%
  amylase in the serum: 9.6 U/ml
pancreas; 20 mg/kg i.p. + taurocholate
  % inhibition amylase increase: 88.3%
  % inhibition weight increase (pancreas): 66.6%
  % ratio pancreas weight / animal weight: 0.43%
  amylase in the serum: 8.4 U/ml
pancreas; [4]
  ED50: 9.2 mg/kg
pancreas; [5]
  ED50: 4.1 mg/kg

## COc1ccc(Cc2nccc3cc(OC)c(OC)cc23)cc1OC [PAPAVERINE, papaverine, reference compound]
[1]
  mortality: 20%
gallbladder; 25 mg/kg i.p.
  % inhibition of the emptying of the gallbladder: 0%
gallbladder; 50 mg/kg i.p.
  % inhibition of the emptying of the gallbladder: 0%
gallbladder; 75 mg/kg i.p.
  % inhibition of the emptying of the gallbladder: 26.1%
gallbladder; [3]
  ID50 (antispastic activity on contraction of the gallbladder induced by egg yolk): INACTIVE
gallbladder; only at the toxic dose of 75 mg/kg
  antispastic activity on the gallbladder (in words): slightly active

## CCK-8: cold (unmarked) CCK; cholecystokinin
[2]
  IC50: 200 pM
